Reference: article PMC10287566, “Signaling-specific inhibition of the CB1 receptor for cannabis use disorder: phase 1 and phase 2a randomized trials” (Nature Medicine, 2023)
Where two headings read alike, the source gives them in different places.

Key:
mice = experiment: THC-induced catalepsy (bar test); type: in vivo
healthy volunteers = experiment: Phase 1 multiple-ascending-dose (MAD) study, safety
Experimental: Four single oral dose levels (0.2, 0.6, 2 and 6 mg) were given in the morning on day 1 in the SAD study, and three oral doses (0.6, 2 and 6 mg) were given in the morning of day 1 to day 7 in the MAD study, to independent dose cohorts. […] Each dose cohort comprised eight volunteers (six (5/1) active and two (1/1) placebo per dose level).
In the MAD study, each randomized participant received a single oral dose per day on days 1 through 7. […] As an approximation, plasma PK concentrations and parameters were presented for all participants as if occurring on day 7.
Participants were admitted to the research clinic at midday before dosing (day −1). In the SAD study, they remained in-house until day 8 for PK and PD samples and safety assessments. In the MAD study, participants remained in-house until day 14 and returned to the research facility on an outpatient basis to have PK and safety assessments at 216 h and 264 h (day 16 and day 18) after their last dose (day 7). Safety monitoring (physical examinations, vital sign measurements, 12-lead ECGs, clinical safety laboratory tests and AE monitoring) were performed throughout the studies. Psychometrics tests (Bond & Lader VAS, Addiction Research Center Inventory (49-item short form) (ARCI-49) and Profile of Mood States 65 self-report items (POMS-65)) and the Columbia-Suicide Severity Rating Scale (C-SSRS) test were performed at baseline, before dose and at 4 h and 24 h after dose on day 1 and day 7 (MAD study, only) and C-SSRS only at 24 h.
All participants who had AEs, whether considered associated with the use of the investigational product or not, were monitored for as long as needed to determine resolution.

[1] = Plasma and brain pharmacokinetics/toxicokinetics in rats; type: in vivo; conditions: for AUC(0-t) / Cmax / half-life / Tmax: rat, plasma; for AUC(0-t) / Cmax / half-life: po
Experimental: Blood samples were obtained from catheterized animals housed in Culex cages with an automated blood sampler—a robotic system designed to facilitate the sampling of whole blood from awake and freely moving rodents. At the last withdrawal timepoint (48 h after dosing), blood aliquots were manually collected from the femoral catheter. This experiment was performed by the CRO Oncodesign.
Blood was withdrawn by cardiac puncture, and the brains were harvested.
In both experiments, blood samples were centrifuged ~7 min at 1,600g (4 °C), and the plasma was collected. The brain was weighed and frozen on dry ice. Plasma and brain were stored below −70 °C until analysis.
For all studies in rats and the 91-d toxicity study in dogs, the timepoints on days 1, 28 and 91 were: before dose and 1, 3, 5, 8 and 24 h after dose. For the 28-d toxicity study in dogs, the timepoints on days 1 and 28 were: before dose and 1, 2, 4, 8, and 24 h after dose. In both species, only mean pre-dose plasma concentrations were calculated on day 14 for the 28-d study and on day 28 for the 91-d study. For the experiments in rats, blood samples for drug analysis were taken from the satellite animals used for the toxicokinetic (TK) analysis (n = 3 per sex per timepoint and per group). For experiments performed in dogs, blood samples were drawn from the cephalic or jugular veins of all animals (n = 3 per sex per group).
TK analysis was performed separately per sex on mean concentrations by a non-compartmental analysis (NCA). The linearity of exposure was evaluated by comparison of the AUC/dose and Cmax/dose ratios. Possible accumulation was evaluated from the ratio of AUC on day 28 and on day 1 for each dose level and each sex. Samples lower than the limit of quantification (LLQ) values (that is, < 8.00 ng ml^−1 in rats and <20.0 ng ml^−1 in dogs) were not included in the calculation of TK parameters.

[2] = Sprague Dawley, 1.6 mg/kg, rats po 1.6 mg/kg single
[3] = both sexes, Sprague Dawley SPF, 20 mg/kg, rats po 20 mg/kg single, 91-day tox study
[4] = both sexes, Sprague Dawley SPF, 36 mg/kg, rats po 36 mg/kg single, 28-day tox study
[5] = both sexes, Sprague Dawley SPF, 65 mg/kg, rats po 65 mg/kg single, 91-day tox study
[6] = both sexes, Sprague Dawley, 2 mg/kg, rats po 2 mg/kg single, 28-day tox study
[7] = both sexes, Sprague Dawley, 2 mg/kg, rats po 2 mg/kg single, 91-day tox study

Structure (SMILES): COc1ccc(CO[C@H]2CC[C@@]3(C)C(=CC[C@H]4[C@@H]5CC[C@H](C(C)=O)[C@@]5(C)CC[C@@H]43)C2)cc1 [AEF0117, 3β-(4-methoxybenzyloxy)pregn-5-en-20-one]
- THC-induced catalepsy (mice): inhibited
- % Inhibition (mice; Catalepsy): 50%
- ID50 (mice; Catalepsy): 0.005 mg/kg
- ID100 (mice; Catalepsy): 0.05 mg/kg
- Number of TEAEs (healthy volunteers; 0.6 mg/d 7 d): 7 E
- Number of participants with a TEAE leading to discontinuation (healthy volunteers; 0.6 mg/d 7 d): 1 (16.7) n (%)
- Number of participants with an SAE (healthy volunteers; 0.6 mg/d 7 d): 0 n (%)
- Number of participants with at least one TEAE (healthy volunteers; 0.6 mg/d 7 d): 3 (50.0) n (%)
- Participants with TEAE: Mild (healthy volunteers; 0.6 mg/d 7 d): 2 (33.3) n (%)
- Participants with TEAE: Moderate (healthy volunteers; 0.6 mg/d 7 d): 1 (16.7) n (%)
- Participants with TEAE: Not related (healthy volunteers; 0.6 mg/d 7 d): 1 (16.7) n (%)
- Participants with TEAE: Related (healthy volunteers; 0.6 mg/d 7 d): 3 (50.0) n (%)
- Participants with TEAE: Severe (healthy volunteers; 0.6 mg/d 7 d): 0 n (%)
- TEAEs by SOC: Eye disorder (healthy volunteers; 0.6 mg/d 7 d): 0 n (%)
- TEAEs by SOC: Gastrointestinal disorders (healthy volunteers; 0.6 mg/d 7 d): 0 n (%)
- TEAEs by SOC: General disorders and administration site conditions (healthy volunteers; 0.6 mg/d 7 d): 1 (16.7) n (%)
- TEAEs by SOC: Investigations (healthy volunteers; 0.6 mg/d 7 d): 0 n (%)
- TEAEs by SOC: Metabolism and nutrition disorders (healthy volunteers; 0.6 mg/d 7 d): 1 (16.7) n (%)
- TEAEs by SOC: Nervous system disorders (healthy volunteers; 0.6 mg/d 7 d): 2 (33.3) n (%)
- TEAEs by SOC: Skin and subcutaneous tissue disorders (healthy volunteers; 0.6 mg/d 7 d): 1 (16.7) n (%)
- Number of TEAEs (healthy volunteers; 2 mg/d 7 d): 3 E
- Number of participants with a TEAE leading to discontinuation (healthy volunteers; 2 mg/d 7 d): 0 n (%)
- Number of participants with an SAE (healthy volunteers; 2 mg/d 7 d): 0 n (%)
- Number of participants with at least one TEAE (healthy volunteers; 2 mg/d 7 d): 2 (33.3) n (%)
- Participants with TEAE: Mild (healthy volunteers; 2 mg/d 7 d): 2 (33.3) n (%)
- Participants with TEAE: Moderate (healthy volunteers; 2 mg/d 7 d): 0 n (%)
- Participants with TEAE: Not related (healthy volunteers; 2 mg/d 7 d): 1 (16.7) n (%)
- Participants with TEAE: Severe (healthy volunteers; 2 mg/d 7 d): 0 n (%)
- TEAEs by SOC: Eye disorder (healthy volunteers; 2 mg/d 7 d): 0 n (%)
- TEAEs by SOC: Gastrointestinal disorders (healthy volunteers; 2 mg/d 7 d): 1 (16.7) n (%)
- TEAEs by SOC: General disorders and administration site conditions (healthy volunteers; 2 mg/d 7 d): 0 n (%)
- TEAEs by SOC: Investigations (healthy volunteers; 2 mg/d 7 d): 1 (16.7) n (%)
- TEAEs by SOC: Metabolism and nutrition disorders (healthy volunteers; 2 mg/d 7 d): 0 n (%)
- TEAEs by SOC: Nervous system disorders (healthy volunteers; 2 mg/d 7 d): 0 n (%)
- TEAEs by SOC: Skin and subcutaneous tissue disorders (healthy volunteers; 2 mg/d 7 d): 0 n (%)
- Number of TEAEs (healthy volunteers; 6 mg/d 7 d): 6 E
- Number of participants with a TEAE leading to discontinuation (healthy volunteers; 6 mg/d 7 d): 0 n (%)
- Number of participants with an SAE (healthy volunteers; 6 mg/d 7 d): 0 n (%)
- Number of participants with at least one TEAE (healthy volunteers; 6 mg/d 7 d): 2 (33.3) n (%)
- Participants with TEAE: Mild (healthy volunteers; 6 mg/d 7 d): 2 (33.3) n (%)
- Participants with TEAE: Moderate (healthy volunteers; 6 mg/d 7 d): 1 (16.7) n (%)
- Participants with TEAE: Not related (healthy volunteers; 6 mg/d 7 d): 2 (33.3) n (%)
- Participants with TEAE: Related (healthy volunteers; 6 mg/d 7 d): 2 (33.3) n (%)
- Participants with TEAE: Severe (healthy volunteers; 6 mg/d 7 d): 0 n (%)
- TEAEs by SOC: Eye disorder (healthy volunteers; 6 mg/d 7 d): 1 (16.7) n (%)
- TEAEs by SOC: Gastrointestinal disorders (healthy volunteers; 6 mg/d 7 d): 0 n (%)
- TEAEs by SOC: General disorders and administration site conditions (healthy volunteers; 6 mg/d 7 d): 1 (16.7) n (%)
- TEAEs by SOC: Investigations (healthy volunteers; 6 mg/d 7 d): 0 n (%)
- TEAEs by SOC: Metabolism and nutrition disorders (healthy volunteers; 6 mg/d 7 d): 0 n (%)
- TEAEs by SOC: Nervous system disorders (healthy volunteers; 6 mg/d 7 d): 2 (33.3) n (%)
- TEAEs by SOC: Skin and subcutaneous tissue disorders (healthy volunteers; 6 mg/d 7 d): 1 (16.7) n (%)
- AUC(0-t) [1, 2]: 1060 ng·h/mL
- Cmax [1, 2]: 116 ng/mL
- half-life ([1]; Sprague Dawley, 1.6 mg/kg, rats po 1.6 mg/kg single, read-out: t½ (converted)): 13.9 h
- half-life ([1]; Sprague Dawley, rats per os, read-out: half-life): 7.3 to 15.8 h
- Tmax ([1]; Sprague Dawley, rats po 1.6 mg/kg single): 4.1 h
- Tmax ([1]; Sprague Dawley, rats, oral, corn oil): 3 h
- AUC(0-t) ([1]; both sexes, Sprague Dawley SPF, 9 mg/kg, rats po 9 mg/kg single, 28-day tox study): 6150 ng·h/mL
- half-life ([1]; both sexes, Sprague Dawley SPF, 9 mg/kg, rats po 9 mg/kg single, 28-day tox study, read-out: t½ (converted)): 11.7 h
- AUC(0-t) [1, 3]: 12700 ng·h/mL
- Cmax [1, 3]: 1060 ng/mL
- half-life ([1]; both sexes, Sprague Dawley SPF, 20 mg/kg, rats po 20 mg/kg single, 91-day tox study, read-out: t½ (converted)): 7.6 h
- AUC(0-t) [1, 4]: 16500 ng·h/mL
- Cmax [1, 4]: 2060 ng/mL
- half-life ([1]; both sexes, Sprague Dawley SPF, 36 mg/kg, rats po 36 mg/kg single, 28-day tox study, read-out: t½ (converted)): 9.8 h
- AUC(0-t) [1, 5]: 18200 ng·h/mL
- Cmax [1, 5]: 1660 ng/mL
- half-life ([1]; both sexes, Sprague Dawley SPF, 65 mg/kg, rats po 65 mg/kg single, 91-day tox study, read-out: t½ (converted)): 10.4 h
- Tmax ([1]; both sexes, Sprague Dawley SPF, rats po 9 mg/kg single, 28-day tox study): 3 h
- Tmax ([1]; both sexes, Sprague Dawley SPF, rats po 20 mg/kg single, 91-day tox study): 3 h
- Tmax ([1]; both sexes, Sprague Dawley SPF, rats po 36 mg/kg single, 28-day tox study): 3 h
- Tmax ([1]; both sexes, Sprague Dawley SPF, rats po 65 mg/kg single, 91-day tox study): 3 h
- AUC(0-t) [1, 6]: 1450 ng·h/mL
- Cmax [1, 6]: 106 ng/mL
- half-life ([1]; both sexes, Sprague Dawley, 2 mg/kg, rats po 2 mg/kg single, 28-day tox study, read-out: t½ (converted)): 8 h
- AUC(0-t) [1, 7]: 1210 ng·h/mL
- Cmax [1, 7]: 86.3 ng/mL
- half-life ([1]; both sexes, Sprague Dawley, 2 mg/kg, rats po 2 mg/kg single, 91-day tox study, read-out: t½ (converted)): 7.7 h
- Cmax ([1]; both sexes, Sprague Dawley, 9 mg/kg, rats po 9 mg/kg single, 28-day tox study): 578 ng/mL
- Tmax ([1]; both sexes, Sprague Dawley, rats po 2 mg/kg single, 28-day tox study): 4 h
- time to steady state ([1]; rats and dogs, repeated administration): approximately 14 days
